The values below are quoted from earlier work in patent US4814324A, “Sterol inhibitors of testosterone 5α-reductase” (Merck & Co., Inc., priority 1987, dated 1989).

Each structure is given as a SMILES string.

Data set [1] deals with female hamster flank organ. As to conditions: Voigt and Hsia; for response elicited by 5α-dihydrotestosterone (flank organ enlargement) / response elicited by testosterone (flank organ enlargement): topical; for response elicited by 5α-dihydrotestosterone (flank organ enlargement): concomitant with 5α-dihydrotestosterone; for response elicited by testosterone (flank organ enlargement): concomitant with testosterone; for enlargement of the female hamster flank organ: topical application alone.

The subject of data set [2] is testosterone-5α-reductase. The conditions noted are these: Voigt and Hsia, Endocrinology, 92, 1216 (1973).

On to `C[C@]12CC[C@H]3[C@@H](CCC4=CC(=O)CC[C@@]43C)[C@@H]1CC[C@@H]2C(=O)O` [4-androsten-3-one-17β-carboxylic acid], for which, in data set [1], the “response elicited by 5α-dihydrotestosterone (flank organ enlargement)” value is on record as “did not inhibit the response elicited by 5α-dihydrotestosterone” and the “response elicited by testosterone (flank organ enlargement)” value is listed as “inhibited the response elicited by testosterone”. Moreover, in data set [2], the “testosterone-5α-reductase inhibition in vitro” value is recorded as “active inhibitors”.

`C[C@]12CCC(=O)C[C@@H]1CC[C@@H]1[C@@H]2CC[C@]2(C)[C@@H](O)CC[C@@H]12` [5α-dihydrotesterone, 5α-dihydrotestosterone]: the “enlargement of the female hamster flank organ” value in data set [1] was “caused enlargement of the female hamster flank organ”.

As for `COC(=O)[C@H]1CC[C@H]2[C@@H]3CCC4=CC(=O)CC[C@]4(C)[C@H]3CC[C@]12C` [methyl 4-androsten-3-one-17β-carboxylate], in data set [1], the “response elicited by 5α-dihydrotestosterone (flank organ enlargement)” value is “did not inhibit the response elicited by 5α-dihydrotestosterone” and the “response elicited by testosterone (flank organ enlargement)” value was “inhibited the response elicited by testosterone”. Moreover, in data set [2], the “testosterone-5α-reductase inhibition in vitro” value is recorded as “active inhibitors”.

For `C[C@]12CC[C@H]3[C@@H](CCC4=CC(=O)CC[C@@]43C)[C@@H]1CC[C@@H]2O` [testosterone], the “enlargement of the female hamster flank organ” value in data set [1] is “caused enlargement of the female hamster flank organ”.
